According to PMC6304572, “Simultaneous Evaluation of the Influence of Panax ginseng on the Pharmacokinetics of Three Diester Alkaloids after Oral Administration of Aconiti Lateralis Radix in Rats Using UHPLC/QQQ-MS/MS” (Evidence-based Complementary and Alternative Medicine : eCAM, 2018):
Read-outs that look alike come from different tables or passages of the source.

Key:
[1] = Stability of the three alkaloids in rat plasma QC samples (4°C, room temperature, freeze-thaw); type: in vitro ADME; conditions: for Freeze-thaw Accuracy: freeze-thaw three times; for Room temperature stability (24 h) Accuracy: room temperature (about 25°C)
Method: Plasma from rats without any processing was used to evaluate the detection methods. 0.1, 0.25, 0.5, 1, 2.5, 5, 10 ng/ml were chosen to calculate standards curve. 0.1, 0.4, 4, 8 ng/mL were selected as the QC sample (n = 4) with repeated operations used to calculate accuracy and precision of the detection method. The data was acquired after keeping the samples at either +4°C 24 hours or room temperature (about 25°C) for 24 hours as well as using freeze-thaw methods (three times) to evaluate stability. Recovery of the developed methods was calculated by the following formula: recovery = measured value/ theoretical value × 100%.

[2] = Pharmacokinetics of three diester alkaloids in rat plasma after oral Aconiti Lateralis Radix extract, with or without 7-day P. ginseng pretreatment; type: in vivo, Sprague-Dawley rats; conditions: for CL/F / Cmax / Tmax / Vd/F / half-life: Sprague-Dawley, rat, in vivo, po, 1 g/kg; for CL/F / Cmax / Tmax / Vd/F / half-life / AUC(0-t) / AUC(0-∞): oral Aconiti Lateralis Radix extract 1 g/kg on 8th day; for CL/F: read-out: CLz/F (converted); for Cmax: read-out: Cmax; for Tmax: read-out: Tmax; for Vd/F: read-out: Vz/F; for half-life: read-out: t1/2z (converted)
Method: Rats were randomly divided into 4 groups: control group, P. ginseng (low, middle, and high) group. 7 days of oral administration of P. ginseng extract was administered at a dosage of 0.1, 1, 10 g/kg for P. ginseng group (low, middle, and high), respectively, once daily. Distilled water was administered at a dosage of 2 ml/kg for control group, simultaneously. On the 8th day, Aconiti Lateralis Radix extracts (1 g/kg) were orally administered to all groups. 0.5 ml plasma samples were collected in 1.5 ml centrifuge tubes (containing heparin sodium) at 10, 30, 60, 90, 120, 240, 480, 720, 1440, and 2880 min. All plasma samples were centrifuged for 15 min at 4000g. The supernatant was separated to another 1.5 ml centrifuge tubes and stored at -20°C.
Liquid-liquid extraction (ethyl acetate) and protein precipitation (50% acetonitrile plus 50% methanol) methods were compared to determine the best method to prepare the plasma sample. Liquid-liquid extraction method was chosen, due to reproducibly high recovery rates. The details of the extraction are as follows: 10 μL carbamazepine (IS) was added to 90 μL plasma, spiked with 400 μL ethyl acetate and the mixture vortexed for 15 seconds. After centrifugation at 12,000g for 10 min, the supernatant was transferred to another 1.5 mL centrifuge tube and dried under a stream of nitrogen at 37°C. The residue was redissolved in 100 μL 50% acetonitrile and centrifuged at 12,000g for 10 min and filtered through a 0.22 μm Micropore membrane. A 5 μL volume of supernatant was injected into LC-MS system for analysis.
Xevo TQ-S (Waters, USA) was utilized for the analysis of all biological samples. Chromatographic separation was conducted on Waters ACQUITY UPLC HSS T3 1.8 μm column (2.1 mm × 100 mm). Column temperature was 45°C and the flow rate was 0.5ml/min. Room temperature was 20 ± 2°C. Phase A consisted of water and 0.1% formic acid (v/v), and phase B consisted of acetonitrile (ACN) 0.1% formic acid (v/v). Column separation was performed by gradient elution: 0-0.5 min, 10% B; 1-2 min, 90% B; 4 min, 10% B.
Electrospray ionization (ESI) and positive ion V mode were used to determine the samples. The main parameters for mass spectrum were set as follows: capillary voltage: 3.5 kv; sample cone: 60 v; source offset: 50 v; source temperature: 150°C; desolvation temperature: 350°C; cone gas flow: 150 L/h; desolvation gas flow: 650 L/h; injection volume: 5 μL.
The data was acquired and analyzed by XEVO-QT-S (Waters). The pharmacokinetic parameters were analyzed by DAS pharmacokinetic program (Version 2.0). SAS statistical software was used to determine the difference between each group. All data was presented as mean ± SD, and P<0.05 was considered statistically significant.

[3] = P. ginseng-high (10 g/kg oral, 7 days)
[4] = P. ginseng-low (0.1 g/kg oral, 7 days)
[5] = P. ginseng-middle (1 g/kg oral, 7 days)
[6] = control group (distilled water 7 days)

Q: For CCN1C[C@]2(COC)[C@H](O)C[C@H](OC)[C@@]34[C@@H]5C[C@@]6(O)[C@H](OC(=O)c7ccccc7)[C@@H]5[C@@](OC(C)=O)([C@@H]([C@H](OC)[C@H]23)[C@@H]14)[C@@H](O)[C@@H]6OC [Aconitine], which “4°C temperature stability (24 h) Accuracy” value (shortened to “4°C temperature stability”) ([1]; QC conc. 0.40 ng/mL) is on record?
A: 99.65 ± 2.16%

Q: What about the “Freeze-thaw Accuracy” value ([1]; QC conc. 0.40 ng/mL) of the same compound?
A: 99.71 ± 2.06%

Q: And the “Room temperature stability (24 h) Accuracy” value (shortened to “Room temperature stability”) ([1]; QC conc. 0.40 ng/mL)?
A: 100.49 ± 2.52%

Q: And the “4°C temperature stability” value ([1]; QC conc. 4.00 ng/mL)?
A: 98.98 ± 9.99%

Q: What about the “Freeze-thaw Accuracy” value ([1]; QC conc. 4.00 ng/mL) of the same compound?
A: 99.91 ± 6.23%

Q: And the “Room temperature stability” value ([1]; QC conc. 4.00 ng/mL)?
A: 96.29 ± 3.26%

Q: And the “4°C temperature stability” value ([1]; QC conc. 8.00 ng/mL)?
A: 101.57 ± 1.29%

Q: And the “Freeze-thaw Accuracy” value ([1]; QC conc. 8.00 ng/mL)?
A: 100.22 ± 1.87%

Q: What about the “Room temperature stability” value ([1]; QC conc. 8.00 ng/mL) of the same compound?
A: 97.66 ± 4.54%

Q: And the CL/F [2, 3]?
A: 852 mL/min/kg

Q: And the Cmax [2, 3]?
A: 11.5 ± 3.49 ng/mL

Q: What about the Tmax [2, 3] of the same compound?
A: 1.33 ± 0.41 h

Q: And the Vd/F [2, 3]?
A: 1550 ± 686 L/kg

Q: What about the half-life [2, 3] of the same compound?
A: 26.5 ± 23.3 h

Q: What about the CL/F [2, 4] of the same compound?
A: 2870 mL/min/kg

Q: What about the Cmax [2, 4] of the same compound?
A: 5.03 ± 3.02 ng/mL

Q: What about the Tmax [2, 4] of the same compound?
A: 4 ± 3.27 h

Q: And the Vd/F [2, 4]?
A: 2480 ± 945 L/kg

Q: And the half-life [2, 4]?
A: 10.1 ± 3.72 h

Q: And the CL/F [2, 5]?
A: 2830 mL/min/kg

Q: What about the Cmax [2, 5] of the same compound?
A: 5.79 ± 2.8 ng/mL

Q: What about the Tmax [2, 5] of the same compound?
A: 2.11 ± 2.97 h

Q: And the Vd/F [2, 5]?
A: 1460 ± 190 L/kg

Q: And the half-life [2, 5]?
A: 6.14 ± 1.18 h

Q: What about the CL/F [2, 6] of the same compound?
A: 3760 mL/min/kg

Q: And the Cmax [2, 6]?
A: 3.88 ± 0.92 ng/mL

Q: What about the Tmax [2, 6] of the same compound?
A: 2.67 ± 2.91 h

Q: What about the Vd/F [2, 6] of the same compound?
A: 3350 ± 1370 L/kg

Q: What about the half-life [2, 6] of the same compound?
A: 10.7 ± 4.78 h

Q: And the “AUC(0-t)” value [2, 3]?
A: 162.98 ± 48.50^∗∗ μg/L∗h

Q: What about the “AUC(0-∞)” value [2, 3] of the same compound?
A: 228.56 ± 100.03^∗∗ μg/L∗h

Q: And the “AUC(0-t)” value ([2]; P. ginseng-high (10 g/kg oral, 7 days), listed as aconitine)?
A: 162.98 ± 48.50 μg/L∗h

Q: What about the “AUC(0-t)” value [2, 4] of the same compound?
A: 58 ± 13.02 μg/L∗h

Q: And the “AUC(0-∞)” value [2, 4]?
A: 60.32 ± 12.99 μg/L∗h

Q: What about the “AUC(0-t)” value [2, 5] of the same compound?
A: 61.05 ± 12.82^∗ μg/L∗h

Q: What about the “AUC(0-∞)” value [2, 5] of the same compound?
A: 61.49 ± 13.16^∗ μg/L∗h

Q: What about the “AUC(0-t)” value ([2]; P. ginseng-middle (1 g/kg oral, 7 days), listed as aconitine) of the same compound?
A: 61.05 ± 12.82 μg/L∗h

Q: What about the “AUC(0-t)” value [2, 6] of the same compound?
A: 40.77 ± 9.71 μg/L∗h

Q: And the “AUC(0-∞)” value [2, 6]?
A: 46.20 ± 9.57 μg/L∗h

Q: What does the source list for COC[C@@]12CC[C@H](OC)[C@]34C(C([C@H](OC)[C@H]13)[C@]1(OC(C)=O)[C@H]3[C@@H](OC(=O)c5ccccc5)[C@](O)(C[C@H]34)[C@@H](OC)[C@@H]1O)N(C)C2 [Hypaconitine]?
A: 4°C temperature stability (24 h) Accuracy ([1]; QC conc. 0.40 ng/mL): 97.44 ± 2.35%; Freeze-thaw Accuracy ([1]; QC conc. 0.40 ng/mL): 99.71 ± 2.06%; Room temperature stability (24 h) Accuracy ([1]; QC conc. 0.40 ng/mL): 100.49 ± 2.52%; 4°C temperature stability (24 h) Accuracy ([1]; QC conc. 4.00 ng/mL): 104.96 ± 5.49%; Freeze-thaw Accuracy ([1]; QC conc. 4.00 ng/mL): 100.26 ± 6.03%; Room temperature stability (24 h) Accuracy ([1]; QC conc. 4.00 ng/mL): 98.72 ± 4.30%; 4°C temperature stability (24 h) Accuracy ([1]; QC conc. 8.00 ng/mL): 101.13 ± 4.82%; Freeze-thaw Accuracy ([1]; QC conc. 8.00 ng/mL): 102.33 ± 3.19%; Room temperature stability (24 h) Accuracy ([1]; QC conc. 8.00 ng/mL): 100.64 ± 3.60%; CL/F [2, 3]: 2320 mL/min/kg; Cmax [2, 3]: 4.87 ± 1.36 ng/mL; Tmax [2, 3]: 1.83 ± 1.29 h; Vd/F [2, 3]: 2280 ± 954 L/kg; half-life [2, 3]: 11.7 ± 4.21 h; CL/F [2, 4]: 2380 mL/min/kg; Cmax [2, 4]: 4.02 ± 2.01 ng/mL; Tmax [2, 4]: 3.61 ± 3.47 h; Vd/F [2, 4]: 2020 ± 819 L/kg; half-life [2, 4]: 9.7 ± 3.55 h; CL/F [2, 5]: 2360 mL/min/kg; Cmax [2, 5]: 5.85 ± 2.71 ng/mL; Tmax [2, 5]: 2.53 ± 3.01 h; Vd/F [2, 5]: 1400 ± 272 L/kg; half-life [2, 5]: 6.97 ± 1.77 h; CL/F [2, 6]: 3400 mL/min/kg; Cmax [2, 6]: 4.63 ± 1.96 ng/mL; Tmax [2, 6]: 2.67 ± 2.91 h; Vd/F [2, 6]: 3880 ± 1700 L/kg; half-life [2, 6]: 14.1 ± 5.41 h; Change of Cmax versus control ([2]; all P. ginseng groups compared to control): did not change; AUC(0-t) [2, 3]: 71.75 ± 22.2^∗ μg/L∗h; AUC(0-∞) [2, 3]: 77.26 ± 25.15^∗ μg/L∗h; AUC(0-t) ([2]; P. ginseng-high (10 g/kg oral, 7 days), listed as hypaconitine): 71.75 ± 22.2 μg/L∗h; AUC(0-t) [2, 4]: 65.64 ± 13.14 μg/L∗h; AUC(0-∞) [2, 4]: 70.68 ± 8.89^∗ μg/L∗h; AUC(0-t) [2, 5]: 70.71 ± 7.55^∗ μg/L∗h; AUC(0-∞) [2, 5]: 71.49 ± 8.07^∗ μg/L∗h; AUC(0-t) ([2]; P. ginseng-middle (1 g/kg oral, 7 days), listed as hypaconitine): 70.71 ± 7.55 μg/L∗h; AUC(0-t) [2, 6]: 48.12 ± 24.59 μg/L∗h; AUC(0-∞) [2, 6]: 60.16 ± 28.03 μg/L∗h
